Measurements as given in patent publication US12515032B2, “Gelatin methacryloyl-based microneedle patches for delivery of water-insoluble drugs” (THE REGENTS OF THE UNIVERSITY OF CALIFORNIA, priority 2020, dated 2026).

What was measured:
[1] = Aqueous stability of curcumin in DPBS (absorbance at 430 nm); type: physicochemical; conditions: after 1 h at 37° C. incubation
Protocol: The stability of curcumin was monitored by measuring absorbance at 430 nm for both the inclusion complex and free curcumin dissolved in DPBS (DPBS diluted with ethanol). The percentage of remaining curcumin was estimated by measuring the absorbance compared to the initial absorbance over a 6 h period. […] GelMA-β-(D) and curcumin inclusion complex preparation: […] For comparison of curcumin solubility, GelMA was used as a control and the resulting solution was named as GelMA/CUR. After the equilibrium was reached, the suspension was centrifuged at 12,000 rpm for 10 min; supernatants were withdrawn and further filtered through a 0.22 μm film. The inclusion complex solutions were measured for absorbance at 430 nm to assess solubility. The prepared GelMA-β-CD/CUR solution was also used for aqueous stability study compared to free curcumin dissolved in DPBS (DPBS:ethanol as 4:1). The GelMA-β-CD/CUR solutions were freeze-dried for additional FTIR and DSC analysis.

[2] = Curcumin loading capacity / solubility in GelMA and GelMA-β-CD solution (absorbance at 430 nm); type: physicochemical
Protocol: Curcumin was selected as a model for water-insoluble drug or therapeutic agent 26 (FIG. 11) to test the loading efficacy of GelMA-β-CD. Aqueous drug suspension was used to compare the loading capacity relative to unmodified GelMA. […] The intermolecular interaction between CD and curcumin primarily dictated the desirable properties of water-insoluble drug 26 delivery.
GelMA-β-(D) and curcumin inclusion complex preparation: To prepare the inclusion complex, excess amount of curcumin (5 mg) was added to pre-dissolved GelMA-β-CD solution in 1 mL DPBS (20%, g/mL) and stirred at 37° C. for 30 min to form the inclusion complex solution where curcumin could be encapsulated within the cavity of CD and the resulting solution was named as GelMA-β-CD/CUR. For comparison of curcumin solubility, GelMA was used as a control and the resulting solution was named as GelMA/CUR. After the equilibrium was reached, the suspension was centrifuged at 12,000 rpm for 10 min; supernatants were withdrawn and further filtered through a 0.22 μm film. The inclusion complex solutions were measured for absorbance at 430 nm to assess solubility. The prepared GelMA-β-CD/CUR solution was also used for aqueous stability study compared to free curcumin dissolved in DPBS (DPBS:ethanol as 4:1). The GelMA-β-CD/CUR solutions were freeze-dried for additional FTIR and DSC analysis.

Compound	Percentage of remaining curcumin [1]	Loading capacity (solubility) of curcumin [2] [µg/mL]
COc1cc(/C=C/C(=O)CC(=O)/C=C/c2ccc(O)c(OC)c2)ccc1O [curcumin]	approximately 45%	
gelatin methacryloyl [GelMA]		84.8 ± 13.5
